The source of these data is ChEMBL document CHEMBL1132596, “Non-peptide corticotropin-releasing hormone antagonists: syntheses and structure-activity relationships of 2-anilinopyrimidines and -triazines” (J Med Chem, 1999).

Structures are written as SMILES.

The nature of data set [1]: The clearance was measured in dog at dose 5 mg/kg after intravenous administration. Format: ADME, organism-based, Canis lupus familiaris. The arrangement: dose 5 mg/kg, route intravenous. The following applies: in vivo.
Data set [2] is described as follows: The clearance was measured in rat at dose 12 mg/kg after intravenous administration. In kind it is ADME, organism-based. The arrangement: dose 12 mg/kg, route intravenous. The following applies: in vivo.
A short description of data set [3]: The clearance was measured in rat at dose 1 mg/kg after intravenous administration. In kind it is ADME, organism-based. Also on record: dose 1 mg/kg, route intravenous. The following applies: in vivo.
Data set [4] can be described thus: The maximum concentration of the compound was measured in rat at dose 30 mg/kg after intraperitoneal administration. In kind it is ADME, organism-based. Also on record: dose 30 mg/kg, route intraperitoneal. The following applies: in vivo, ip.
Data set [5] is described as follows: The maximum concentration of the compound was measured in rat at dose 30 mg/kg after peroral administration. Format: ADME, organism-based. The settings on record: in vivo, po. Also on record: dose 30 mg/kg, route oral.
Data set [6] in a line: The bioavailability measured as F(%) in dog at dose 5 mg/kg after peroral administration. Format: ADME, organism-based, Canis lupus familiaris. The settings on record: in vivo, po.
Data set [7] can be described thus: Bioavailability in rat (dose 30 mg/kg i.p.). In kind it is ADME, organism-based. The settings on record: in vivo, ip.
The nature of data set [8]: The maximum concentration of the compound was measured in dog at dose 5 mg/kg after peroral administration. Format: ADME, organism-based, Canis lupus familiaris. Also on record: dose 5 mg/kg, route oral. The settings on record: in vivo, po.
Data set [9] is described as follows: The Tmax is the time taken to reach maximum concentration was measured in rat at dose 30 mg/kg after intraperitoneal administration. The settings on record: in vivo, ip. In kind it is ADME, organism-based. The arrangement: dose 30 mg/kg, route intraperitoneal.
Data set [10] can be described thus: The Tmax is the time taken to reach maximum concentration was measured in rat at dose 30 mg/kg after peroral administration. In kind it is ADME, organism-based. Also on record: dose 30 mg/kg, route oral. The settings on record: in vivo, po.
A short description of data set [11]: The half life period was measured in dog at dose 5 mg/kg after intravenous administration. Format: ADME, organism-based, Canis lupus familiaris. Also on record: dose 5 mg/kg, route intravenous. The following applies: in vivo.
A short description of data set [12]: The half life period was measured in rat at dose 12 mg/kg after intravenous administration. In kind it is ADME, organism-based. The arrangement: dose 12 mg/kg, route intravenous. The settings on record: in vivo.
Data set [13] can be described thus: The Tmax is the time taken to reach maximum concentration was measured in dog at dose 5 mg/kg after peroral administration. Format: ADME, organism-based, Canis lupus familiaris. Also on record: dose 5 mg/kg, route oral. The settings on record: in vivo, po.
Data set [14] is described as follows: The Tmax is the time taken to reach maximum concentration was measured in rat at dose 1 mg/kg after peroral administration. In kind it is ADME, organism-based. The arrangement: dose 1 mg/kg, route oral. The settings on record: in vivo, po.
The target in data set [15] is T1, Corticotropin-releasing factor receptor 1 (Homo sapiens, UniProt P34998).
T1 sequence (P34998 whole entry): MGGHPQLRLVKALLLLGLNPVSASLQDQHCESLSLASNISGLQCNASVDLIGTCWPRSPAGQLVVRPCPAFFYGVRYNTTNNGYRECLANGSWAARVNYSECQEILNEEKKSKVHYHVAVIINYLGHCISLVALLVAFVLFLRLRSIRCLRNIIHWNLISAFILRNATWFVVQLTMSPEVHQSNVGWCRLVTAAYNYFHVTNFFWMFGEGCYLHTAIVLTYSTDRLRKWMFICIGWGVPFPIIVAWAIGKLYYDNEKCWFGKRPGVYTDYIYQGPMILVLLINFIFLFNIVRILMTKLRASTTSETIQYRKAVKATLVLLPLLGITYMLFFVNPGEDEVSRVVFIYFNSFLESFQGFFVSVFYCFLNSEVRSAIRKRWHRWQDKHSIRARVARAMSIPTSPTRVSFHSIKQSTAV
The data set is described as follows: Binding affinity for human recombinant corticotropin releasing factor receptor 1.

The nature of data set [16]: The half life period was measured in rat at dose 1 mg/kg after intravenous administration. Also on record: dose 1 mg/kg, route intravenous. The following applies: in vivo. In kind it is ADME, organism-based.
Data set [17] is described as follows: The maximum concentration of the compound was measured in rat at dose 1 mg/kg after peroral administration. The settings on record: in vivo, po. Also on record: dose 1 mg/kg, route oral. In kind it is ADME, organism-based.

Turning to `CCN(c1nc(C)nc(N2CCOCC2)n1)c1c(Br)cc(OC)cc1OC`, the clearance is 21.7 mL/min/kg in data set [1], 48.3 mL/min/kg in [2] and 66.7 mL/min/kg in [3]. Further, the Cmax in data set [4] was 2700 nM; in data set [5], 753 nM; in [8], 730 nM; in [17], 21 nM. For the same molecule, the bioavailability in data set [6] was found to be 20%; in data set [7], 47%. The Tmax in data set [9] turned out to be 18 min; in data set [10], 1.6 h; in data set [13], 30 min; in data set [14] it was 18 min. For the same molecule, the half-life in [11] is 360 min; in data set [12], 936 min; in [16], 456 min. Besides, the Ki in [15] stood at 32 nM.
